From patent US8603532B2, “Nanostructures for drug delivery” (priority 2008, dated 2013)
Like-named read-outs stand apart in the source and are kept apart here.

How the values were obtained:
[1] = system: PC3 cells; experiment: In vitro cytotoxicity, MTT assay; type: cell-based, human; details: 72 h
Procedure: (§1) A series of in vitro cytotoxicity assays were performed to understand the anti-cancer properties of platinum(IV)-encapsulated nanoparticles, using human prostate cancer cells, and directly compared its efficacy to that of free cisplatin. The choice of the cancer cells was based on the presence of PSMA, as mentioned before. […] As shown in this figure, the Pt(IV)encapsulated polymeric nanoparticles containing PSMA aptamers on the surface (Pt—NP-Apt) were highly cytotoxic to the LNCaP cells, which up-regulate PSMA on the surface, giving an IC50 value of 0.03 μM. […] The PSMA^+ aptamer targeted Pt(IV)-encapsulated PLGA-b-PEG nanoparticles (Pt—Np-Apt) were 80 times more toxic in the PSMA LNCaP cells, indicating potential application of these nanoparticles in human prostate cancer.

[2] = system: PSMA+ LNCaP cells; experiment: In vitro cytotoxicity, MTT assay; type: cell-based, human; details: 72 h
Procedure: as §1

[3] = system: Male Sprague Dawley Rats; experiment: Maximum tolerated dose (MTD) study, intravenous; type: in vivo; details: for Death: 3 rats; for dose tolerated by the rats / MTD: i.v.; for dose tolerated by the rats: survival; for MTD: 14 days monitoring
Source text: The maximum tolerated dose (MTD) of chemotherapeutic agents may be a critical factor for achieving optimal therapeutic benefit. The effectiveness of chemotherapeutic agents is generally proportional to the dose of the agents at their targets; however, the dose may be limited by systemic toxicity. In this non-limiting example, the therapeutic effectiveness of a platinum(IV) prodrug was attempted to be increased by increasing the maximum tolerated dose (MTD) of the prodrug by using a polymeric nanoparticle drug delivery systems. Various doses of cisplatin, Pt(IV)-prodrug (compound 1 from Example 1), Pt—NP (from Example 1), or PLGA-PEG-NP (control, nanoparticles not comprising platinum complexes) were injected intravenously and the MTD was estimated based on the threshold at which all […] survived.
Male Sprague Dawley Rats were used for MTD determination with intravenous administration. All rats treated with plain nanoparticles tolerated these doses. In the Pt—NP group, rats receiving doses up to 40 mg/kg tolerated the dose, but two of three in the 50 and 60-mg/kg groups died. Only the dose of 20 mg/kg free cisplatin or Pt(IV)-prodrug were tolerated by the rats. To further define the MTD, overall toxicity was monitored for 14 days. As a sign of toxicity, the body weights of rats were measured.

[4] = 1 h post administration, literature value; cited from earlier work
[5] = Cyclic voltammetry, Pt(IV)/Pt(II) reduction potential; type: physicochemical
Procedure: The identity of the platinum species released from the polymeric nanoparticles was determined by ESI-MS. […] The redox potentials were also investigated for reduction of compound 1 at various pH values. […] NPs before reaching the nuclear DNA.

[6] = Blood circulation and excretion studies; type: in vivo; details: rat, 2 mg/kg i.v., 1 h post administration
Procedure: Male Sprague Dawley rats were used in this study. Separate groups of animals received i.v. injections of Pt—NP (2 mg/kg) or Pt(IV)-prodrug (2 mg/kg) and were placed in metabolism cages. Blood was collected at predetermined time points in heparinized tubes. Whole organs or representative tissue samples were removed and weighed where necessary. Urine was collected for 24 h. Plasma was obtained from the blood samples by […]. Samples were analyzed for their platinum content using a Perkin Elmer Flameless Atomic Absorption Spectrophotometer.

[cis-Pt(NH3)2Cl2] [cisplatin, reference compound]
IC50 [1]: 0.18 µM | IC50 [2]: 2.4 µM | Death ([3]; 5 mg/kg i.v.): 0 | Death ([3]; 10 mg/kg i.v.): 0 | Death ([3]; 20 mg/kg i.v.): 0 | Death ([3]; 40 mg/kg i.v.): 3 | dose tolerated by the rats [3]: 20 mg/kg | MTD ([3]; rats): 20 mg/kg | platinum dose remaining in the systemic circulation [4]: 1.5%

c,c,t-[Pt(NH3)2(O2CCH2CH2CH2CH2CH2)2Cl2] [compound 1]
Pt(IV)/Pt(II) couple, irreversible cyclic voltammetric response ([5]; 1:4 DMF-sodium phosphate buffer, pH 6.0): ~−0.243 V vs. NHE | Pt(IV)/Pt(II) couple, irreversible cyclic voltammetric response ([5]; 1:4 DMF-sodium phosphate buffer, pH 7.4): ~−0.233 V vs. NHE | Pt(IV)/Pt(II) couple, irreversible cyclic voltammetric response ([5]; MeCN-0.1 M TBAPF6): ~−0.805 V vs. NHE | Death ([3]; 5 mg/kg i.v.): 0 | Death ([3]; 10 mg/kg i.v.): 0 | Death ([3]; 20 mg/kg i.v.): 0 | Death ([3]; 40 mg/kg i.v.): 2 | dose tolerated by the rats [3]: 20 mg/kg | MTD ([3]; rats): 20 mg/kg | body weight change ([3]; rats, up to 20 mg/kg, 14 days): did not show any weight loss | platinum dose remaining in the systemic circulation [6]: 15.6%
